“Also recorded” adds a separate entry of the source.
What was measured:
HepG2 and PANC-1 cells = assay: Cell morphology and EGFR expression in HepG2 and PANC-1 cells; assay type: cell-based, human
Procedure: FIGS. 26A-26C show MNF interferes with inducible changes in cell morphology and expression of EGFR. […] White arrows show individual cells with filopodia. FIG. 26C, Cell lysates were prepared from similar studies and immunoblotted for EGFR. The membranes were reprobed for Hsp90, which served as a loading control.
Western blot analysis. For detection of intracellular signaling proteins, cells were lysed in radioimmunoprecipitation buffer containing EGTA and EDTA (Boston BioProducts, Ashland, Mass.). The lysis buffer contained a protease inhibitor cocktail (Sigma-Aldrich) and phosphatase inhibitor cocktail (Calbiochem, San Diego, Calif.). Equivalent amount of proteins (14 and 54 μg/well for PANC-1 and HepG2 cells, respectively) were separated on 4 to 12% precast gels (Invitrogen, Carlsbad, Calif.) using SDS-polyacrylamide gel electrophoresis under reducing conditions and then electrophoretically transferred onto polyvinylidene fluoride membrane (Invitrogen). Western blots were performed according to standard methods, which involved blocking in 5% non-fat milk and incubated with the antibody of interest, followed by incubation with a secondary antibody conjugated with the enzyme horseradish perodixase. The detection of immunoreactive bands was performed by chemiluminescence using the ECL Plus Western Blotting Detection System (GE Healthcare, Piscataway, N.J.). The quantification of bands was done by volume densitometry by using ImageJ software. The rabbit polyclonal antibodies against EGFR were obtained from Cell Signaling Technology, Inc. (Beverly, Mass.) and the monoclonal anti-Hsp90 was purchased from Santa Cruz Biotechnology, Inc. (Santa Cruz, Calif.).

U87MG cells = assay: [3H]-Thymidine incorporation in U87MG cells; assay type: cell-based, human; details: compound alone
Procedure: Maintenance and Treatment of Cell Lines. Human HepG2 hepatocarcinoma cells and human U87MG glioma cells (ATCC, Manassas, Va.) were maintained in EMEM medium supplemented with 1% L-glutamine, 1% sodium pyruvate, 1% penicillin/streptomycin, and 10% FBS (Hyclone, Logan, Utah). The human 1321N1 astrocytoma cells (European Collection of Cell Cultures, Sigma-Aldrich) were cultured in Dulbecco's modified Eagle's medium supplemented with 10% FBS and penicillin/streptomycin. All cell lines were cultured at 37° C. in 5% CO2, and the medium was replaced every 2-3 days.
Cells were seeded in 12-well plates at approximately 50,000 cells/well and incubated at 37° C. After 24 hours, the wells were rinsed with PBS and replaced with serum-free medium containing the appropriate concentration of the test compounds. After another 24-hour incubation at 37° C., 1 μCi of [^3H]-thymidine was added to each well and incubated at 37° C. for 16 hours. [^3H]-Thymidine incorporation into DNA was monitored after the cells were washed twice with PBS and then lysed in 600 μL of 0.1N NaOH for 30 minutes with shaking. The lysate was then mixed with 3 mL of liquid scintillation cocktail (Beckman Coulter, Inc., Brea, Calif.), and radioactivity was measured by liquid scintillation counting using Beckman Coulter LS6000IC Scintillation Counter. Data are shown as CPM incorporated compared to the control cells.

HepG2 cells = assay: Cell cycle analysis by flow cytometry in HepG2 cells; assay type: cell-based, human; details: HepG2, 1 μM
Procedure: Cell Cycle Analysis. Cell cycle distributions were performed by flow cytometry on propidium iodide-stained nuclei prepared by the NIM technique. DNA histograms of at least 10,000 cells acquired on a Becton-Dickinson FACScanto II (BD Biosciences, San Jose, Calif.) were deconvoluted using the Multicycle program (Phoenix Flow Systems) for estimates of the percentage of cells in the G0/1, S, and G2+M phases of the cell cycle. Debris and doublets were removed from the analysis by software algorithms.

rat C6 glioma cells = assay: 3H-Thymidine incorporation in rat C6 glioma cells; assay type: cell-based; details: 24 hours
Procedure: Cell culture. The rat-derived C6 glioma cell line was obtained from the American Type Culture Collection (Manassas, Va.). The cells were routinely maintained in DMEM supplemented with L-glutamine, 1% penicillin/streptomycin solution, and 10% FBS in a humidified CO2 incubator at 37° C.
3H-Thymidine incorporation. C6 glioma cells were seeded in 12-well plates at ˜5×10^4 cells/well and incubated for 24 hours followed by a second 24-hour incubation with various concentrations of MNF. Radiolabeled thymidine (10 Ci/mmol; PerkinElmer Life and Analytical Sciences, Waltham, Mass.) was added at 1 μCi per well for 16 hours and its incorporation into DNA was then measured. Each treatment group was performed in triplicate and three independent studies were carried out.

GPR55 = GPR55 (Homo sapiens, UniProt Q9Y2T6); assay: Cellular uptake of TocriFluor T1117 in HepG2 cells; assay type: cell-based; set-up: host or cells: HepG2 hepatocarcinoma cells
rat C6 glioma xenograft = assay: C6 tumor xenograft in mice, tumor growth; assay type: in vivo, mouse
Procedure: C6 tumor xenograft in mice. In order to assess the ability of MNF to induce regression of tumor growth in vivo, rat C6 glioma cells were trypsin-collected at confluency and were used to generate tumor xenografts. Athymic female nude mice (SWISS nu+/nu+) were obtained from Charles Rivers (L'Arbresle, France) and maintained under pathogen-free conditions with a 12 hours light/12 hours dark cycle. Animals were fed ad libitum with normal chow (supplier). Athymic nude mice were inoculated subcutaneously with […] containing 0.5×10^6 C6 glioma cells in the left flank and then were randomly divided into two groups of 10 animals each. Starting 3 days after cell inoculation, mice received daily intraperitoneal injection (10 μl·g-1 body weight) of vehicle or MNF (2 mg·kg-1) in 100 μM ascorbic acid in saline (vehicle) five days a week for 19 days. Animal survival was monitored daily, and tumor size was determined with the use of a caliper to measure the length (a) and width (b) and estimated as 4/3π×rl2×r2, where rl is the smaller and r 2 the larger radius. […] The mice were euthanized by cervical […], and tumor masses were removed, weighed and washed with cold PBS before being snap-frozen in liquid nitrogen. A second set of studies with 8-9 animals in both groups was repeated.

Chain of GPR55 (Q9Y2T6 whole entry): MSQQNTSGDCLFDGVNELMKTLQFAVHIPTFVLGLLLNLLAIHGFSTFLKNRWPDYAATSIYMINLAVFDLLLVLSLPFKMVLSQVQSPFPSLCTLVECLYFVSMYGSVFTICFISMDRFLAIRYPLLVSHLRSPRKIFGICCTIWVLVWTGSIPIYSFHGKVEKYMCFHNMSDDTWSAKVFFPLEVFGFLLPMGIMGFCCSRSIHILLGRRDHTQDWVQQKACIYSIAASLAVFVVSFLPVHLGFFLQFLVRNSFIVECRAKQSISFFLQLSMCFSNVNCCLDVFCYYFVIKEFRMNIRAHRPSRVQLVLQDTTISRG

COc1ccc(C[C@@H](C)NC[C@H](O)c2cc(O)cc(O)c2)c2ccccc12 [(R,R′)-MNF, (R,R′)-4′-methoxy-1-naphthylfenoterol]
effect on O-1602-induced EGFR levels (HepG2 and PANC-1 cells; 1 μM pretreatment): MNF blocked this effect
effect on change in morphology induced by AM251 and O-1602 (HepG2 and PANC-1 cells; 1 μM pretreatment 30 minutes, agonists 5 μM 16 hours): rendered the cells refractory to the change in morphology induced by AM251 and O-1602
effect on cellular proliferation (U87MG cells): potent inhibition of cellular proliferation
G2/M-phase cell population (HepG2 cells; after 6 h (control 13.8±1.1%)): 10.2±0.9%
S-phase cell population (HepG2 cells; after 6 h (control 34.7±0.3%)): 34.1±0.9%
G2/M-phase cell population (HepG2 cells; after 12 h): 14.6±1.8%
S-phase cell population (HepG2 cells; after 12 h): 13.7±1.2%
G2/M-phase cell population (HepG2 cells; after 24 h): 8.9±1.6%
S-phase cell population (HepG2 cells; after 24 h): 24.6±4.2%
number of sub-G1 events, maximum (HepG2 cells; by 12 hours): 21.5±0.7%
inhibition of C6 cell growth / reduction in mitogenesis (rat C6 glioma cells; 20 nM): 54.3±1.2%
IC50 (rat C6 glioma cells; then [3H]-thymidine 16 hours, read-out: IC50, growth inhibition of rat C6 glioma cell line): ~1 nM
reduction in T1117 incorporation (GPR55; HepG2, MNF alone (1 μM), 10 nM T1117): ~70%
reduction in T1117 incorporation as compared to vehicle-treated cells (GPR55; HepG2, MNF with AM251 added either before or after the 30-minutes MNF treatment): ~6.8 fold
T1117 uptake (GPR55; HepG2, MNF 1 μM or AM251 10 μM for 1 hour, then T1117 0.1 μM): dramatically reduced
average AUC±SEM (tumor volume over time, FIG. 19B) (rat C6 glioma xenograft; C6 tumor-bearing female nude mice, 2 mg/kg, five days a week for 19 days, n=19 (vehicle 5450±518)): 3217±265
tumor volume compared with vehicle-treated group (rat C6 glioma xenograft; C6 xenograft in nude mice, 2 mg/kg intraperitoneal): Significant reduction in mean tumor volumes; also recorded: Significant reduction in tumor volume

— patent US11389415B2, “Methods of regulating cannabinoid receptor activity-related disorders and diseases” (The United States of America as represented by the …, priority 2012, dated 2022)
